# Measured values as given in US20120029187A1, “HALOALKYLSULFONANILIDE DERIVATIVE” (Nissan Chemical Industries, Ltd., priority 2009, published 2012).
# Key:
# Assay type in all cases: in vivo
# barnyardgrass [1] = assay: Test Example 1: herbicidal effects in preemergence treatment under submerged conditions; conditions: dose 2.52 g/a
# Outline: (§1)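 Weed seeds and 2.5-leaf rice seedlings shared each flooded cup of alluvial soil. Dosing, expressed as g per are, was by pouring water-diluted emulsifiable concentrate onto the surface on sowing day. Mortality was graded 0 to 5 after three weeks' growth.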
# bulrush [2] = assay: as above; conditions: dose 2.52 g/a
# Outline: as §1
# ducksalad [3] = assay: as above; conditions: dose 2.52 g/a
# Outline: as §1
# transplanted rice = assay: Test Example 1: preemergence treatment under submerged conditions, effect on crop; conditions: dose 2.52 g/a
# Outline: as §1
# barnyardgrass [4] = assay: Test Example 2: herbicidal effects during the vegetation period under submerged conditions; conditions: treatment during the vegetation period under submerged conditions; dose 2.52 g/a
# Outline: (§2)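 Barnyardgrass, bulrush and ducksalad were co-sown in alluvial soil flooded to 4 cm and grown in a greenhouse at 25 to 30° C. At the 1- or 2-leaf stage, water-diluted emulsifiable concentrates went onto the water surface at set doses (g/a). Herbicidal effect was scored three weeks later on a graded scale.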
# bulrush [5] = assay: as above; conditions: treatment during the vegetation period under submerged conditions; dose 2.52 g/a
# Outline: as §2
# ducksalad [6] = assay: as above; conditions: treatment during the vegetation period under submerged conditions; dose 2.52 g/a
# Outline: as §2
# Italian ryegrass [7] = assay: Test Example 3: herbicidal effects in soil treatment; conditions: dose 3.2 g/a
# Outline: (§3)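 Seeds were sown in sterilized diluvial soil and covered with about 1.5 cm of soil. Compounds, formulated as emulsifiable concentrates and diluted with water, were sprayed evenly over the soil surface at set doses in g/a. Herbicidal effect was scored on a rating scale three weeks later.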
# barnyardgrass [8] = assay: as above; conditions: dose 3.2 g/a
# Outline: as §3
# beadstraw [9] = assay: as above; conditions: dose 3.2 g/a
# Outline: as §3
# common chickweed [10] = assay: as above; conditions: dose 3.2 g/a
# Outline: as §3
# common lambsquater [11] = assay: as above; conditions: dose 3.2 g/a
# Outline: as §3
# common ragweed [12] = assay: as above; conditions: dose 3.2 g/a
# Outline: as §3
# giant foxtail [13] = assay: as above; conditions: dose 3.2 g/a
# Outline: as §3
# large crabgrass [14] = assay: as above; conditions: dose 3.2 g/a
# Outline: as §3
# redroot pigweed [15] = assay: as above; conditions: dose 3.2 g/a
# Outline: as §3
# velvetleaf [16] = assay: as above; conditions: dose 3.2 g/a
# Outline: as §3
# water foxtail [17] = assay: as above; conditions: dose 3.2 g/a
# Outline: as §3
# wild oat [18] = assay: as above; conditions: dose 3.2 g/a
# Outline: as §3
# Italian ryegrass [19] = assay: Test Example 4: herbicidal effect in foliage treatment; conditions: dose 3.2 g/a
# Outline: (§4)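 Post-emergence foliar spray of water-diluted emulsifiable concentrate at predetermined doses (g per are), applied to plants 14 days after sowing in sterile diluvial soil (greenhouse, 25 to 30° C). Visual scale rating of effect taken 3 weeks later.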
# barnyardgrass [20] = assay: as above; conditions: dose 3.2 g/a
# Outline: as §4
# beadstraw [21] = assay: as above; conditions: dose 3.2 g/a
# Outline: as §4
# common chickweed [22] = assay: as above; conditions: dose 3.2 g/a
# Outline: as §4
# common lambsquater [23] = assay: as above; conditions: dose 3.2 g/a
# Outline: as §4
# common ragweed [24] = assay: as above; conditions: dose 3.2 g/a
# Outline: as §4
# giant foxtail [25] = assay: as above; conditions: dose 3.2 g/a
# Outline: as §4
# large crabgrass [26] = assay: as above; conditions: dose 3.2 g/a
# Outline: as §4
# posumbu knotweed = assay: as above; conditions: dose 3.2 g/a
# Outline: as §4
# redroot pigweed [27] = assay: as above; conditions: dose 3.2 g/a
# Outline: as §4
# velvetleaf [28] = assay: as above; conditions: dose 3.2 g/a
# Outline: as §4
# water foxtail [29] = assay: as above; conditions: dose 3.2 g/a
# Outline: as §4
# wild oat [30] = assay: as above; conditions: dose 3.2 g/a
# Outline: as §4
# [31] = three weeks after the application
smiles,measurement,setting,value
CCCOC(=O)N(c1ccccc1CN1COC(C)(C)C(F)C1=O)S(=O)(=O)C(F)(F)F (stereo not shown) [II-35],"A: barnyardgrass, herbicidal effect (evaluation scale 0-5)",barnyardgrass [1],5 (mortality of 90% or above (nearly complete death))
same,"B: bulrush, herbicidal effect (evaluation scale 0-5)",bulrush [2],5 (mortality of 90% or above (nearly complete death))
same,"C: ducksalad, herbicidal effect (evaluation scale 0-5)",ducksalad [3],5 (mortality of 90% or above (nearly complete death))
same,"a: transplanted rice, effect on crop (evaluation scale 0-5)",transplanted rice,0 (mortality of less than 5% (almost ineffective))
same,"A: barnyardgrass, herbicidal effect (evaluation scale 0-5)",barnyardgrass [4],5 (mortality of 90% or above (nearly complete death))
same,"B: bulrush, herbicidal effect (evaluation scale 0-5)",bulrush [5],5 (mortality of 90% or above (nearly complete death))
same,"C: ducksalad, herbicidal effect (evaluation scale 0-5)",ducksalad [6],5 (mortality of 90% or above (nearly complete death))
same,"H: Italian ryegrass, herbicidal effect (evaluation scale 0-5)",Italian ryegrass [7],4 (mortality of at least 70% and less than 90%)
same,"A: barnyardgrass, herbicidal effect (evaluation scale 0-5)",barnyardgrass [8],5 (mortality of 90% or above (nearly complete death))
same,"O: beadstraw, herbicidal effect (evaluation scale 0-5)",beadstraw [9],4 (mortality of at least 70% and less than 90%)
same,"N: common chickweed, herbicidal effect (evaluation scale 0-5)",common chickweed [10],1 (mortality of at least 5% and less than 20%)
same,"L: common lambsquater, herbicidal effect (evaluation scale 0-5)",common lambsquater [11],0 (mortality of less than 5% (almost ineffective))
same,"J: common ragweed, herbicidal effect (evaluation scale 0-5)",common ragweed [12],4 (mortality of at least 70% and less than 90%)
same,"E: giant foxtail, herbicidal effect (evaluation scale 0-5)",giant foxtail [13],3 (mortality of at least 40% and less than 70%)
same,"D: large crabgrass, herbicidal effect (evaluation scale 0-5)",large crabgrass [14],5 (mortality of 90% or above (nearly complete death))
same,"K: redroot pigweed, herbicidal effect (evaluation scale 0-5)",redroot pigweed [15],2 (mortality of at least 20% and less than 40%)
same,"I: velvetleaf, herbicidal effect (evaluation scale 0-5)",velvetleaf [16],3 (mortality of at least 40% and less than 70%)
same,"G: water foxtail, herbicidal effect (evaluation scale 0-5)",water foxtail [17],5 (mortality of 90% or above (nearly complete death))
same,"F: wild oat, herbicidal effect (evaluation scale 0-5)",wild oat [18],3 (mortality of at least 40% and less than 70%)
same,"H: Italian ryegrass, herbicidal effect",Italian ryegrass [19]; three weeks after application,4 (mortality of at least 70% and less than 90%)
same,"A: barnyardgrass, herbicidal effect",barnyardgrass [20]; three weeks after application,5 (mortality of 90% or above (nearly complete death))
same,"O: beadstraw, herbicidal effect",beadstraw [21]; three weeks after application,4 (mortality of at least 70% and less than 90%)
same,"N: common chickweed, herbicidal effect",common chickweed [22]; three weeks after application,3 (mortality of at least 40% and less than 70%)
same,"L: common lambsquater, herbicidal effect",common lambsquater [23]; three weeks after application,1 (mortality of at least 5% and less than 20%)
same,"J: common ragweed, herbicidal effect",common ragweed [24]; three weeks after application,3 (mortality of at least 40% and less than 70%)
same,"E: giant foxtail, herbicidal effect",giant foxtail [25]; three weeks after application,3 (mortality of at least 40% and less than 70%)
same,"D: large crabgrass, herbicidal effect",large crabgrass [26]; three weeks after application,5 (mortality of 90% or above (nearly complete death))
same,"M: posumbu knotweed, herbicidal effect",posumbu knotweed; three weeks after application,3 (mortality of at least 40% and less than 70%)
same,"K: redroot pigweed, herbicidal effect",redroot pigweed [27]; three weeks after application,1 (mortality of at least 5% and less than 20%)
same,"I: velvetleaf, herbicidal effect",velvetleaf [28]; three weeks after application,0 (mortality of less than 5% (almost ineffective))
same,"G: water foxtail, herbicidal effect",water foxtail [29]; three weeks after application,5 (mortality of 90% or above (nearly complete death))
same,"F: wild oat, herbicidal effect",wild oat [30]; three weeks after application,0 (mortality of less than 5% (almost ineffective))
CCOC(=O)N(c1ccccc1CN1CSCCC1=O)S(=O)(=O)C(F)(F)F [II-79],"A: barnyardgrass, herbicidal effect (evaluation scale 0-5)",barnyardgrass [1],5 (mortality of 90% or above (nearly complete death))
same,"B: bulrush, herbicidal effect (evaluation scale 0-5)",bulrush [2],5 (mortality of 90% or above (nearly complete death))
same,"C: ducksalad, herbicidal effect (evaluation scale 0-5)",ducksalad [3],5 (mortality of 90% or above (nearly complete death))
same,"a: transplanted rice, effect on crop (evaluation scale 0-5)",transplanted rice,0 (mortality of less than 5% (almost ineffective))
same,"A: barnyardgrass, herbicidal effect (evaluation scale 0-5)",barnyardgrass [4],5 (mortality of 90% or above (nearly complete death))
same,"B: bulrush, herbicidal effect (evaluation scale 0-5)",bulrush [5],5 (mortality of 90% or above (nearly complete death))
same,"C: ducksalad, herbicidal effect (evaluation scale 0-5)",ducksalad [6],5 (mortality of 90% or above (nearly complete death))
same,"herbicidal effect, H: Italian ryegrass",Italian ryegrass [7],3 (mortality of at least 40% and less than 70%)
same,"herbicidal effect, A: barnyardgrass",barnyardgrass [8],5 (mortality of 90% or above (nearly complete death))
same,"herbicidal effect, O: beadstraw",beadstraw [9],0 (mortality of less than 5% (almost ineffective))
same,"herbicidal effect, N: common chickweed",common chickweed [10],4 (mortality of at least 70% and less than 90%)
same,"herbicidal effect, L: common lambsquater",common lambsquater [11],3 (mortality of at least 40% and less than 70%)
same,"herbicidal effect, J: common ragweed",common ragweed [12],4 (mortality of at least 70% and less than 90%)
same,"herbicidal effect, E: giant foxtail",giant foxtail [13],5 (mortality of 90% or above (nearly complete death))
same,"herbicidal effect, D: large crabgrass",large crabgrass [14],5 (mortality of 90% or above (nearly complete death))
same,"herbicidal effect, K: redroot pigweed",redroot pigweed [15],2 (mortality of at least 20% and less than 40%)
same,"herbicidal effect, I: velvetleaf",velvetleaf [16],5 (mortality of 90% or above (nearly complete death))
same,"herbicidal effect, G: water foxtail",water foxtail [17],5 (mortality of 90% or above (nearly complete death))
same,"herbicidal effect, F: wild oat",wild oat [18],0 (mortality of less than 5% (almost ineffective))
same,"H: Italian ryegrass, herbicidal effect",Italian ryegrass [19]; [31],3 (mortality of at least 40% and less than 70%)
same,"A: barnyardgrass, herbicidal effect",barnyardgrass [20]; [31],5 (mortality of 90% or above (nearly complete death))
same,"O: beadstraw, herbicidal effect",beadstraw [21]; [31],4 (mortality of at least 70% and less than 90%)
same,"N: common chickweed, herbicidal effect",common chickweed [22]; [31],4 (mortality of at least 70% and less than 90%)
same,"L: common lambsquater, herbicidal effect",common lambsquater [23]; [31],3 (mortality of at least 40% and less than 70%)
same,"J: common ragweed, herbicidal effect",common ragweed [24]; [31],4 (mortality of at least 70% and less than 90%)
same,"E: giant foxtail, herbicidal effect",giant foxtail [25]; [31],4 (mortality of at least 70% and less than 90%)
same,"D: large crabgrass, herbicidal effect",large crabgrass [26]; [31],4 (mortality of at least 70% and less than 90%)
same,"M: posumbu knotweed, herbicidal effect",posumbu knotweed; [31],4 (mortality of at least 70% and less than 90%)
same,"K: redroot pigweed, herbicidal effect",redroot pigweed [27]; [31],1 (mortality of at least 5% and less than 20%)
same,"I: velvetleaf, herbicidal effect",velvetleaf [28]; [31],4 (mortality of at least 70% and less than 90%)
same,"G: water foxtail, herbicidal effect",water foxtail [29]; [31],5 (mortality of 90% or above (nearly complete death))
same,"F: wild oat, herbicidal effect",wild oat [30]; [31],0 (mortality of less than 5% (almost ineffective))
